Experiment [1] is described as follows: Sensory descriptive analysis of ice tea prototypes, sweetness factor (Example 1). The settings on record: HC 10 ppm and/or HT 3 ppm.
The nature of experiment [2]: Sensory profiling of ice tea preparation, HT/HC ratio 1:3.33 (Example 2). The settings on record: tea base, 4 wt.-% HFCS, 0.10 wt.-% citric acid, HT 3 ppm and/or HC 10 ppm; for Acidity / Balance / Bitter / Complexity / Fruity-Juicy / Long lasting / Off-Notes / Onset Sweetness / Overall Sweetness / Syrupy / Tea: line scale (10 cm). Here is the method:
In order to further validate the insights derived from Example 1, the interaction and main effects of HT and HC are to be shown in a setup in which a drinkable preparation with a tea base, 0.05 wt.-% lemon flavor, 4 wt.-% high fructose corn syrup, 0.1 wt.-% citric acid and 0.03 wt.-% trisodium citrate was prepared. That preparation was divided into four samples by varying the dosage of HC and HT resulting in one sample containing no HC and no HT (control), containing 10 ppm HC and no HT (HC main effect), containing no HC and 3 ppm HT (HT main effect) and, respectively, containing 10 ppm HC and 3 ppm HT (HT×HC interaction effect). […] The final preparations were profiled by an expert panel consisting of ten educated panelists (two measurements). Different sensorial attributes (ice tea language with focus on sweetness) were assessed and scored on an unstructured line scale (10 cm) for its perceived intensity. The results of the testing are shown below in Table 2 as well as in FIG. 1 and FIG. 2.

The nature of experiment [3]: Sensory profiling of ice tea preparation, HT/HC ratios 1:1 and 1:6 (Example 4). The settings on record: tea base, 5 wt.-% HFCS, 0.18 wt.-% citric acid, line scale (10 cm). The protocol:
In order to further validate the insights derived from Example 1 and 2, the interaction and main effects of HT and HC are to be shown in a setup in which a drinkable preparation with a tea base, 0.05 wt.-% lemon flavor, 5 wt.-% high fructose corn syrup, 0.18 wt.-% citric acid and 0.03 wt.-% trisodium citrate was prepared. That preparation was divided into four samples by varying the dosage of HT and HC resulting in one sample containing no HT and no HC (control), containing 5 or 3 ppm HT and no HC (HT main effect), containing no HT and 5 or 18 ppm HC (HC main effect) and, respectively, containing 5 or 3 ppm HT and or 18 ppm HC (HT×HC interaction effect). […] The final preparations were profiled by an expert panel consisting of seven educated panelists (two measurements). Different sensorial attributes (ice tea language with focus on sweetness) were assessed and scored on an unstructured line scale (10 cm) for its perceived intensity. The results of the testing are shown below in Table 4 and 5 as well as in FIG. 4 to FIG. 7.

Experiment [4] can be described thus: Dosing tests with an excess of hesperetin, sensory ranking (Example 3). Here is the method: A drinkable preparation with 7 wt.-% sucrose and 0.15 wt.-% citric acid was prepared. This preparation was used as a base composition for dosing tests with different dosing regimens of hesperetin dihydrochalcone and hesperetin. The different samples were evaluated by an expert panel consisting of five educated panelists and ranked on a scale from 0 to 9. The results of the testing are shown below in Table 3 as well as in FIG. 3.

For experiment [5] the following is noted: J. Chem. Senses 1979, 4(1), 35-47; cited from earlier work.
The mark [6] stands for this setting: Acesulfame K Ice tea Base, 60 ppm.
The mark [7] stands for this setting: HFCS Ice tea Base, 2 wt. % High Fructose corn sirup.
The mark [8] stands for this setting: Invert Sugar Syrup Ice tea Base, 2 wt. % invert sugar syrup.
The mark [9] stands for this setting: Reb A Ice tea Base, 60 ppm rebaudioside A.
The mark [10] stands for this setting: Reb A/Reb D Ice tea Base, 60 ppm rebaudioside A/60 ppm rebaudioside D.
Where [11] appears, read: Reb A/Reb M Ice tea Base, 60 ppm rebaudioside A/45 ppm rebaudioside M.
The mark [12] stands for this setting: Reb M/Reb D Ice tea Base, 45 ppm rebaudioside M/60 ppm rebaudioside D.
[13] abbreviates: Sucralose Ice tea Base, 100 ppm sucralose.
Setting [14] is: Sugar Free Ice tea Base, no added sugar/sweetener.

Entries after “also recorded” stand apart in the source; their conditions may differ.

On to `COc1ccc(CCC(=O)c2c(O)cc(O)cc2O)cc1O` [HC, hesperetin dihydrochalcone], for which the “ANOVA (sweetness factor)” value in experiment [1] (setting [6]) was −0.1. Also, the “ANOVA (sweetness factor)” value in experiment [1] (setting [7]) is −0.9. In addition, in experiment [1] (setting [8]), the “ANOVA (sweetness factor)” value is reported as −1. Besides, in experiment [1] (setting [9]), the “ANOVA (sweetness factor)” value was −0.5. Further, the “ANOVA (sweetness factor)” value in experiment [1] (setting [10]) is recorded as −0.1. Also, the “ANOVA (sweetness factor)” value in experiment [1] (setting [11]) worked out at 0. In addition, in experiment [1] (setting [12]), the “ANOVA (sweetness factor)” value was −0.3. Moreover, the “ANOVA (sweetness factor)” value in experiment [1] (setting [13]) was −0.8. In experiment [1] (setting [14]), the “ANOVA (sweetness factor)” value is listed as −1.3. Besides, in experiment [2], the Remarks result is “lingering,; also recorded: sweetener”, the Acidity was determined as 3.22, the Balance is 3.50 and the Bitter amounted to 2.58. Further, in experiment [2], the Complexity was determined as 3.62, the Fruity-Juicy is on record as 3.88, the Long lasting is 3.90 and the Off-Notes is recorded as 2.25. Further, in experiment [2], the “Onset Sweetness” value amounted to 4.39, the “Overall Sweetness” value was determined as 4.80, the Syrupy is 3.70 and the Tea was 4.08. Besides, in experiment [3] (HT 3 ppm and/or HC 18 ppm), the Acidity amounted to 3.12, the Balance is given as 3.66, the Bitter amounted to 1.94 and the Complexity is 4.58. Further, in experiment [3] (HT 3 ppm and/or HC 18 ppm), the Fruity-Juicy was determined as 4.27, the Long lasting is on record as 4.20, the Off-Notes worked out at 1.01 and the “Onset Sweetness” value came to 4.99. For the same compound, in experiment [3] (HT 3 ppm and/or HC 18 ppm), the “Overall Sweetness” value is 5.60, the Syrupy is 4.32 and the Tea is recorded as 4.01. Moreover, in experiment [3] (HT 5 ppm and/or HC 5 ppm), the Acidity is given as 3.46, the Balance was 3.68, the Bitter is 1.93 and the Complexity was determined as 3.90. For the same compound, in experiment [3] (HT 5 ppm and/or HC 5 ppm), the Fruity-Juicy is 4.68, the Long lasting is 3.11, the Off-Notes is 0.70 and the “Onset Sweetness” value stood at 4.19. Further, in experiment [3] (HT 5 ppm and/or HC 5 ppm), the “Overall Sweetness” value came to 4.46, the Syrupy worked out at 3.96 and the Tea is 4.11.

`COc1ccc([C@@H]2CC(=O)c3c(O)cc(O)cc3O2)cc1O` [HT, hesperetin]: in experiment [1] (setting [6]), the “ANOVA (sweetness factor)” value is −2.4. In experiment [1] (setting [7]), the “ANOVA (sweetness factor)” value is recorded as −3.2. In addition, the “ANOVA (sweetness factor)” value in experiment [1] (setting [8]) is on record as −3.3. For the same compound, in experiment [1] (setting [9]), the “ANOVA (sweetness factor)” value was −2.8. Moreover, the “ANOVA (sweetness factor)” value in experiment [1] (setting [10]) is recorded as −2.4. The “ANOVA (sweetness factor)” value in experiment [1] (setting [11]) is listed as −2.3. Moreover, in experiment [1] (setting [12]), the “ANOVA (sweetness factor)” value was −2.6. Also, the “ANOVA (sweetness factor)” value in experiment [1] (setting [13]) is −3.1. Besides, the “ANOVA (sweetness factor)” value in experiment [1] (setting [14]) was −3.6. Further, in experiment [2], the Acidity is listed as 3.71, the Balance worked out at 3.20, the Bitter worked out at 2.93 and the Complexity is listed as 3.06. For the same compound, in experiment [2], the Fruity-Juicy is 3.60, the Long lasting is given as 2.32, the Off-Notes worked out at 1.85 and the “Onset Sweetness” value amounted to 3.14. Further, in experiment [2], the “Overall Sweetness” value is 3.39, the Syrupy is listed as 2.67 and the Tea is listed as 4.30. Further, in experiment [4], the “hesperetin concentration exhibiting off-tastes in the preparation” value is given as “more than 30 ppm”. Besides, in experiment [3] (HT 3 ppm and/or HC 18 ppm), the Acidity stood at 4.11, the Balance is 3.24, the Bitter is listed as 2.21 and the Complexity was 3.99. In addition, in experiment [3] (HT 3 ppm and/or HC 18 ppm), the Fruity-Juicy is reported as 4.19, the Long lasting is recorded as 2.61, the Off-Notes is listed as 0.77 and the “Onset Sweetness” value is listed as 4.22. Moreover, in experiment [3] (HT 3 ppm and/or HC 18 ppm), the “Overall Sweetness” value was found to be 4.53, the Syrupy is 3.72 and the Tea stood at 4.39. Further, in experiment [3] (HT 5 ppm and/or HC 5 ppm), the Acidity came to 4.06, the Balance worked out at 3.94, the Bitter came out at 1.87 and the Complexity amounted to 3.87. Also, in experiment [3] (HT 5 ppm and/or HC 5 ppm), the Fruity-Juicy is 4.32, the Long lasting is reported as 2.79, the Off-Notes was 0.58 and the “Onset Sweetness” value came to 3.89. In experiment [3] (HT 5 ppm and/or HC 5 ppm), the “Overall Sweetness” value was 4.07, the Syrupy was found to be 3.59 and the Tea is recorded as 4.16.

As for `COc1ccc(CCC(=O)c2ccccc2O)cc1O` [dihydrochalcone (1)], in experiment [5], the taste entry was “intensively sweet tasting”.

In the case of `COc1ccc(CCC(=O)c2c(O)cccc2O)cc1O` [dihydrochalcone (2)], in experiment [5], the taste entry is reported as “tasteless”.

Values taken from patent US12568998B2, “Flavouring composition with balanced taste profile” (SYMRISE AG, priority 2021, dated 2026).
